Source: US8378100B2, “Phosphonate derivatives as autotaxin inhibitors” (University of Virginia Patent Foundation, priority 2008, dated 2013)

Target: recombinant human ATX (Homo sapiens, UniProt Q13822)
Test: Choline detection assay for ATX
Type: biochemical
Settings: table of g1-g15 (β-keto phosphonates), activity without test compound = 100%; for ATX activity (%) 1 μM: 1 μM test compound; for ATX activity (%) 10 μM: 10 μM test compound; for ATX activity (%) 100 μM: 100 μM test compound
Protocol: The phosphonate derivatives were tested in choline detection assay for ATX inhibition. The ATX activity assay was conducted in 0.1 ml, buffer: (in mM: Tris-HCl 100, pH9, NaCl 150, MgCl2 5, CoSO4 0.03, 0.05% Triton X-100), 1 mM 18:1 LPC, using recombinant human ATX with or without test compounds; incubation was for 16 hours at 37° C. The released choline was detected as follows: Samples were mixed with 0.15 ml of 50 mM TrisHCl containing 2.7 mM TOOS(N-ethyl-N-2-hydroxy-3-sulfopropyl)-m-toluidine, 2.7 mM 4-AAP (4-aminoantipyrine), 47.7 U/ml horseradish peroxidase, 18 U/ml choline oxidase, and 5 mM MgCl2. After 30 min incubation at 37° C., light absorbance (550 nm) was determined, and the amount of choline release was calculated from a standard curve.
The ATX activity was measured in the presence of the test compounds under different concentrations (100 μM, 10 μM and 1 μM). The ATX activity without TEST compounds was used as the standard (100% activity). Some β-hydroxy phosphonate derivatives inhibited ATX activity at only the highest concentration tested. […] These two compounds were synthesized from protected L-tyrosine and they are diastereomers. The less polar isomer, f17, (also known as VPC8a202) was able to inhibit 73% of ATX activity at 1 μM.

ATX activity (%) 1 μM [%] | ATX activity (%) 10 μM [%] | ATX activity (%) 100 μM [%] | SMILES
104 | 97 | 75 | CCCCCCCCCCCCCCCC(=O)N[C@H](Cc1ccc(OCCC)cc1)C(=O)CP(=O)(O)O [g10]
– | 97 | 72 | CCCCCCCCCCCCCCCC(=O)N[C@@H](Cc1ccc(OCCC)cc1)C(=O)CP(=O)(O)O [g11]
93 | 84 | – | CCCCCCCCCCCCCCCC(=O)N[C@H](Cc1ccc(OCCCCC)cc1)C(=O)CP(=O)(O)O [g12]
95 | 83 | – | CCCCCCCCCCCCCCCC(=O)N[C@@H](Cc1ccc(OCCCCC)cc1)C(=O)CP(=O)(O)O [g13]
